This is an account of results in patent US20230391752A1, “PYRROLIDINE-3-CARBOXAMIDE DERIVATIVES AND RELATED USES” (Chulalongkorn University, priority 2020, published 2023).

In the experiment the test system is HBV. The experiment is described as follows: In vitro anti-HBV activity in HepG2.2.15 cell line (intracellular HBV DNA by qPCR at 1 μM). The format is cell-based. As to conditions: Hepatitis B virus, 144 h; HepG2.2.15 cells, 1 μM compound, 6 days, intracellular HBV DNA as percentage compared to vehicle control (0.5% DMSO). The procedure: The stable transfected HBV cell line, called HepG2.2.15 cells was a valuable model with high reproducibility and commonly used for drug screening. To identify the anti-HBV activity, HepG2.2.15 cells were seeded at 5×10^5 cells/well with high glucose Dulbecco's modified Eagle medium (DMEM) containing 10% heat inactivated fetal bovine serum (FBS), 300 mg/L G418, non-essential amino acids (NEAA) 100 units/ml Antibiotic-Antimycotic, and allowed to stand for an overnight in an incubator set at 37° C. and 5% C02. HepG2.2.15 cells in each well were treated with the medium containing a compound (1 μM with 0.5% dimethyl sulfoxide (DMSO final concentration) for three days in the incubator. After that the medium was removed and fresh medium containing the compound was added to the cells for another 3 days. After 6 days of treatment, intracellular HBV DNA was extracted and determined by using quantitative real-time PCR (qPCR) technique with specific primers. Intrahepatic HBV DNA viral load was reported as percentage compared to vehicle control (0.5% DMSO) as shown in Table A.
“B” means % ranging between 80 and 90; “C” means % ranging between 70 and 80; “D” means % ranging between 60 and 70; “E” means % ranging between 45 and 60, “F” means %<45.
(In general: Quantitative PCR measures a nucleic acid by following its amplification.)

The compound `O=C(NCc1cnc(Cl)s1)[C@H]1CCN(C(=O)c2[nH]c3ccccc3c2Cl)C1` [Example 71, (S)-1-(3-chloro-1H-indole-2-carbonyl)-N-((2-chlorothiazol-5-yl)methyl)pyrrolidine-3-carboxamide] came in with an activity at 1 µM of 70 to 80%.

The compound `Cc1ccc(C(=O)N2CC[C@H](C(=O)Nc3cc(F)c(F)c(F)c3)C2)[nH]1` [Example 1, (S)-1-(5-methyl-1H-pyrrole-2-carbonyl)-N-(3,4,5-trifluorophenyl)pyrrolidine-3-carboxamide] gave an activity at 1 µM of 45 to 60%.

For the compound `O=C(Nc1cc(F)c(F)c(F)c1)[C@H]1CCN(C(=O)c2ccc(C(F)F)[nH]2)C1` [Example 11, (S)-1-(5-(difluoromethyl)-1H-pyrrole-2-carbonyl)-N-(3,4,5-trifluorophenyl)pyrrolidine-3-carboxamide], the activity at 1 µM is 70 to 80%.

The compound `O=C(Nc1cc(F)c(F)c(F)c1)[C@H]1CCN(C(=O)c2cc3sccc3[nH]2)C1` [Example 7, (S)-1-(4H-thieno[3,2-b]pyrrole-5-carbonyl)-N-(3,4,5-trifluoro-phenyl)pyrrolidine-3-carboxamide] showed an activity at 1 µM of 60 to 70%.

For `C[C@H]1[C@@H](C(=O)Nc2ccc(F)c(C#N)c2)CCN1C(=O)c1cc2cccnc2[nH]1` [Example 21, (2S,3S)—N-(3-cyano-4-fluorophenyl)-2-methyl-1-(1H-pyrrolo[2,3-b]pyridine-2-carbonyl) pyrrolidine-3-carboxamide], the activity at 1 µM was over 90%.

Take `N#Cc1cc(NC(=O)[C@H]2CCN(C(=O)c3cc4cccnc4[nH]3)C2)ccc1F` [Example 18, (S)—N-(3-cyano-4-fluorophenyl)-1-(1H-pyrrolo[2,3-b]pyridine-2-carbonyl)pyrrolidine-3-carboxamide]: the activity at 1 µM was 70 to 80%.

Regarding `O=C(c1cccnc1)c1ccc(C(=O)N2CC[C@H](C(=O)Nc3cc(F)c(F)c(F)c3)C2)[nH]1` [Example 142], the activity at 1 µM was over 90%.

`O=C(Nc1cc(F)c(F)c(F)c1)[C@H]1CCN(C(=O)c2cc3cnccc3[nH]2)C1` [Example 46, (S)-1-(1H-pyrrolo[3,2-c]pyridine-2-carbonyl)-N-(3,4,5-trifluorophenyl)pyrrolidine-3-carboxamide] gave an activity at 1 µM of 60 to 70%.

Turning to `Cc1c(-c2ccc(C(=O)N3CC[C@H](C(=O)Nc4cc(F)c(F)c(F)c4)C3)[nH]2)c2cccnc2n1C` [Example 153, (S)-1-(5-(1,2-dimethyl-1H-pyrrolo[2,3-b]pyridin-3-yl)-1H-pyrrole-2-carbonyl)-N-(3,4,5-trifluorophenyl)pyrrolidine-3-carboxamide], the activity at 1 µM was under 45%.

In the case of `O=C(Nc1cc(F)c(F)c(F)c1)[C@H]1CCN(C(=O)c2cc3ccncc3[nH]2)C1` [Example 47, (S)-1-(1H-pyrrolo[2,3-c]pyridine-2-carbonyl)-N-(3,4,5-trifluorophenyl)pyrrolidine-3-carboxamide], the activity at 1 µM is 80 to 90%.

Take `N#Cc1cc(NC(=O)[C@H]2CCN(C(=O)c3ccc(-c4ccc(F)cc4)[nH]3)C2)ccc1F` [Example 76, (S)—N-(3-cyano-4-fluorophenyl)-1-(5-(4-fluorophenyl)-1H-pyrrole-2-carbonyl)pyrrolidine-3-carboxamide]: the activity at 1 µM lay within 45 to 60%.

In turn, `O=C(Nc1cc(F)c(F)c(F)c1)[C@H]1CCN(C(=O)c2cc3cc(F)c(F)cc3[nH]2)C1` [Example 49, (S)-1-(5,6-difluoro-1H-indole-2-carbonyl)-N-(3,4,5-trifluorophenyl)pyrrolidine-3-carboxamide] showed an activity at 1 µM of over 90%.

In turn, `N#Cc1ncccc1-c1ccc(C(=O)N2CC[C@H](C(=O)Nc3ccc(F)c(Cl)c3)C2)[nH]1` [Example 148, (S)—N-(3-chloro-4-fluorophenyl)-1-(5-(2-cyanopyridin-3-yl)-1H-pyrrole-2-carbonyl)pyrrolidine-3-carboxamide] showed an activity at 1 µM of 45 to 60%.

With `Cc1ncsc1-c1ccc(C(=O)N2CC[C@H](C(=O)Nc3cc(F)c(F)c(F)c3)C2)[nH]1` [Example 108, (S)-1-(5-(4-methylthiazol-5-yl)-1H-pyrrole-2-carbonyl)-N-(3,4,5-trifluorophenyl) pyrrolidine-3-carboxamide], the activity at 1 µM is 45 to 60%.

Take `Cc1cc(C(=O)N2CC[C@H](C(=O)Nc3cc(F)c(F)c(F)c3)C2)[nH]c1C` [Example 15, (S)-1-(4,5-dimethyl-1H-pyrrole-2-carbonyl)-N-(3,4,5-trifluorophenyl)pyrrolidine-3-carboxamide]: the activity at 1 µM was 60 to 70%.

As to `COc1cc2cc(C(=O)N3CC[C@H](C(=O)Nc4cc(F)c(F)c(F)c4)C3)[nH]c2cn1` [Example 12, (S)-1-(5-methoxy-1H-pyrrolo[2,3-c]pyridine-2-carbonyl)-N-(3,4,5-trifluorophenyl)pyrrolidine-3-carboxamide], the activity at 1 µM is 80 to 90%.

In turn, `O=C(Nc1cc(F)c(F)c(F)c1)[C@H]1CCN(C(=O)c2[nH]c3ncccc3c2Cl)C1` [Example 59, (S)-1-(3-chloro-1H-pyrrolo[2,3-b]pyridine-2-carbonyl)-N-(3,4,5-trifluorophenyl)pyrrolidine-3-carboxamide] registered an activity at 1 µM of 45 to 60%.

`N#Cc1cc(NC(=O)[C@H]2CCN(C(=O)c3[nH]c4ccccc4c3Cl)C2)ccc1F` [Example 43, (S)-1-(3-chloro-1H-indole-2-carbonyl)-N-(3-cyano-4-fluorophenyl)pyrrolidine-3-carboxamide] registered an activity at 1 µM of 45 to 60%.

`Cc1ccc(C(=O)N2CC[C@H](C(=O)Nc3cc(F)c(F)c(Cl)c3)C2)[nH]1` [Example 62, (S)—N-(3-chloro-4,5-difluorophenyl)-1-(5-methyl-1H-pyrrole-2-carbonyl)pyrrolidine-3-carboxamide] came in with an activity at 1 µM of 45 to 60%.

In the case of `Cc1cc(NC(=O)[C@H]2CCN(C(=O)c3cc4cccnc4[nH]3)C2)ccc1F` [Example 24, (S)—N-(4-fluoro-3-methylphenyl)-1-(1H-pyrrolo[2,3-b]pyridine-2-carbonyl)pyrrolidine-3-carboxamide], the activity at 1 µM was in the range of 60 to 70%.

In turn, `O=C(Nc1cc(F)c(F)c(F)c1)[C@H]1CCN(C(=O)c2ncc[nH]2)C1` [Example 27, (S)-1-(1H-imidazole-2-carbonyl)-N-(3,4,5-trifluorophenyl)pyrrolidine-3-carboxamide] registered an activity at 1 µM of over 90%.

Take `N#Cc1c[nH]c(C(=O)N2CC[C@H](C(=O)Nc3ccc(F)c(Cl)c3)C2)c1` [Example 40, (S)—N-(3-chloro-4-fluorophenyl)-1-(4-cyano-1H-pyrrole-2-carbonyl)pyrrolidine-3-carboxamide]: the activity at 1 µM was over 90%.

Turning to `N#Cc1cc(NC(=O)[C@H]2CCN(C(=O)c3ccc(Cl)[nH]3)C2)ccc1F` [Example 22, (S)-1-(5-chloro-1H-pyrrole-2-carbonyl)-N-(3-cyano-4-fluorophenyl)pyrrolidine-3-carboxamide], the activity at 1 µM was 60 to 70%.

In turn, `N#Cc1ccc(C(=O)N2CC[C@H](C(=O)Nc3cc(F)c(F)c(F)c3)C2)[nH]1` [Example 50, (S)-1-(5-cyano-1H-pyrrole-2-carbonyl)-N-(3,4,5-trifluorophenyl)pyrrolidine-3-carboxamide] gave an activity at 1 µM of 70 to 80%.

`O=C(Nc1cc(F)c(F)c(F)c1)[C@H]1CCN(C(=O)c2ccc(-c3ccncc3)[nH]2)C1` [Example 77, (S)-1-(5-(pyridin-4-yl)-1H-pyrrole-2-carbonyl)-N-(3,4,5-trifluorophenyl)pyrrolidine-3-carboxamide] registered an activity at 1 µM of under 45%.
